Consider one compound from patent EP4803511A1, “SMALL MOLECULE COMPOUND HAVING SULFONIC ACID OR SULFINIC ACID LACTONE STRUCTURE, COMPOSITION AND USE THEREOF” (Hangzhou Phecdamed Co., Ltd., priority 2023, dated 2025).

In one test the test system is TNF-α. Nature of the test: TNF-α gene expression in HaCaT after UVB radiation (q-PCR). The settings on record: UVB 80 mJ/cm^2, 24 hrs, dose-dependent. The format is cell-based, human. An excerpt:
In the following Test Examples 6-1 and 6-2, using immortalized keratinocytes (HaCaT) and UVB to establish a model, after the compound to be test was applied to HaCaT, the expression levels of TNF-α, IL-8, IL-1β and EP2 were detected; using immortalized keratinocytes (HaCaT) and capsaicin to establish a model, after the compound to be test was applied to HaCaT, the expression level of TRPV1 was detected, so as to evaluate the soothing effect of the test substance from multiple dimensions.
• 1) Cell inoculation: HaCaT cells were inoculated into a 6-well plate at 6×10^5/well, cultured in an incubator (37°C, 5% CO2) for 12 hrs, and a normal control group (0 mJ/cm^2 + vehicle control), a model control group (80 mJ/cm^2 + vehicle control), a low concentration group (80 mJ/cm^2 + low concentration compound), a medium concentration group (80 mJ/cm^2 + medium concentration compound), and a high concentration group (80 mJ/cm^2 + high concentration compounds) were respectively provided. • 2) UVB modeling: The HaCaT cells were washed 3 times with D'Hanks before UVB radiation, 1 mL of D'Hanks was added into the wells, to make the cells to be immersed, and the control group was coated with tinfoil and placed in the dark. […]

The next test has as its system Cu/Zn-sod. Nature of the test: Zebrafish oxidative aging model (menadione), Cu/Zn-sod gene expression by RT-qPCR. In kind it is in vivo. The conditions noted are these: I-8 at 2.5, 7.5, and 22.2 µg/mL, 22 hrs, 4 µM menadione; compared to the modeling group, statistical significance. Here is the method: Experimental animal: Healthy wild-type AB strain zebrafish at 48 hpf (hours post-fertilization)
Healthy AB strain zebrafish were taken as experimental animal. A zebrafish oxidative aging model was constructed using chemical mutagenesis with 4 µM menadione as the modeling drug. Fucoxanthin was used as a positive control compound. After treating the zebrafish oxidative aging model with different concentrations of I-8 for 22 hrs, changes in the reactive oxygen species (ROS) content, β-galactosidase activity, and the expression of three antioxidant and anti-aging related genes (Cu/Zn-sod, Mn-sod, and ampk) were respectively detected and statistically analyzed.
During the experiment, the modeling drug, positive compound, and I-8 were dispersed together in the culture water of zebrafish. […] Cell ROX™ Deep Red fluorescent probes and β-galactosidase staining kits were used to specifically label ROS and β-galactosidase in the fish, respectively, and the staining intensity was quantified using Image-Pro Plus software. After extracting RNA from the whole fish, the expression changes of three genes (Cu/Zn-sod, Mn-sod, and ampk) in the fish were detected at the mRNA level using Quantitative Real-time PCR (RT-qPCR). The data were statistically analyzed using GraphPad software.
A general note: Quantitative PCR measures a nucleic acid by following its amplification.

In a further test the test system is COL7A1. Nature of the test: Collagen VII gene expression in HaCaT human immortalized keratinocytes. The conditions noted are these: 24 hrs, dose-dependent. The format is cell-based. An excerpt: Skin fragility is partly attributed to changes in hemidesmosomes and the expression downregulation of various collagen proteins (Collagen I, III, IV, VII) or laminins (such as LN-5) at the dermal-epidermal junction. LN-5 has been proven to be a component of anchoring fibers in the basement membrane of the skin, cornea, conjunctiva, and other tissues. LN-5 participates in cell-cell interactions through the mediation of integrins and proteoglycans, thereby playing a crucial role in cell adhesion, growth, migration, and differentiation. The appearance of wrinkles is closely related to the normal synthesis and expression of collagen and laminins. Therefore, the increase of the above collagen content and LN-5 can achieve a certain role in resisting wrinkles, and plays an important role in the aging process of the skin. Therefore, the anti-wrinkle effect of the compound to be tested was evaluated by detecting the level of Collage I protein of […] by ELISA, and detecting the transcription levels of epidermal cells (keratinocytes) III, IV, VII and LN -5 by Real-Time PCR. The following Test Examples 8-1 and 8-2 evaluated the anti-wrinkle efficacy of compounds using HaCaT human immortalized keratinocytes and HSF human skin fibroblasts. […]

On to `O=S1(=O)Oc2cc(O)ccc2-c2ccc(O)cc21` [Compound I-8], for which the “expression level of TNF-α” value in the test with TNF-α is “downregulating”. Also, the “expression of Cu/Zn-sod gene” value in the test on Cu/Zn-sod is given as “upregulated”. Further, in the test on COL7A1, the COL7A1 gene expression entry is listed as “upregulate”.
